Starred links: 1 amine or outer side, 2 acyl side, 3 side chain; linkers in the order of their positions; H or OH if unused. Non-standard residues stand in square brackets, D forms with d. Residues, ends and D or L forms follow the SMILES beside them. Groups on a side chain read outwards from the residue. No end group written: not given here. *: point of attachment. C20 diacid = O=C(O)CCCCCCCCCCCCCCCCCCC(=O)*; C18 diacid = O=C(O)CCCCCCCCCCCCCCCCC(=O)*; γGlu = O=C(O)[C@H](CCC(=O)[*:2])N[*:1]; Stearoyl = CCCCCCCCCCCCCCCCCC(=O)*; αMeF = C[C@](N)(Cc1ccccc1)C(=O)O; PEG2 = NCCOCCOCCC(=O)O; AEEA = NCCOCCOCC(=O)O; Aib = CC(C)(N)C(=O)O
How the values were obtained:
[1] = molecular target: T1, neprilysin (Homo sapiens, UniProt P08473); assay: Proteolytic resistance to neprilysin; assay type: in vitro ADME; conditions: pH 8.3
T1 construct: purchased R&D Systems 1182-ZNC-010
Procedure: 10.0 μg (˜10 units) recombinant Neprilysin (R&D Systems: 1182-ZNC-010) was reconstituted to 100 μL (100 μg/mL, ˜100 units/mL) in assay buffer (50 mM Tris, 50 mM NaCl, 50 mM NaHCO3, adjusted to pH 8.3) to give the enzyme stock solution. Peptide stock solutions were prepared to a concentration of ˜250 μM (˜1.0 mg/mL of 4 kDa peptide) in assay buffer. 100 μL (10 μg, ˜10 units) of neprilysin stock solution was added to 100 μL of peptide stock solution (1.0 mg/mL, ˜100 μg of peptide) and the mixture was co-incubated in a temperature regulated incubator at 37° C. for the duration of the experiment. 25 μL aliquots (˜12.5 μg initial peptide) of the peptide-enzyme mixture were periodically withdrawn (t=0, 30 mins, 1 h, 2 h, 4 h and 24 h) and quenched immediately by addition to an equal volume ([…]) of 10% TFA (v/v) in 1:1 water/acetonitrile to arrest proteolytic activity. The quenched aliquot centrifuged at 7800 rpm, and 30 μL of the supernatant was analyzed by analytical RP-HPLC as follows: Analytical RP-HPLC method: Agilent Polaris C8-A column (4.6×100 mm, 3 micron) eluted with a linear binary gradient of 10-90% MeCN (0.1% TFA v/v) in water (0.1% TFA v/v) over either 10 or 15 mins at 1.5 mL min^−1 at 40° C. with detection by UV absorption at 210 nm. Manual integration (AUC) allowed estimation of remaining intact peptide over the time course of the experiment.

[2] = tested on: wildtype (WT) mice; assay: Glucose change in wildtype mice; assay type: in vivo, mouse; conditions: s.c.
Procedure: […] and wildtype (WT) mice at 8-14 weeks of age were singly housed on standard chow diet (Envigo, 2918) and automatic water. They acclimated for a minimum of ˜1-2 weeks, and mice were sorted into groups (n=4-8/group) based on body weight. On day of study, mice were fasted briefly for 2 hrs prior to study start. In some studies, mice were pre-treated with octreotide (BaChem, 10 mg/kg) at 30 minutes prior to peptide injection. Glucose was measured via glucometer at various timepoints including −30 min (prior to octreotide when used in studies), 0 min (before peptide dose), 30, 60, 120, 180, 240, and 360 minutes. Since these studies are acute in nature, mice were re-used for multiple studies (no more than 3) and always allowed at least a minimum wash-out period of 1 week.

[3] = molecular target: T2, human GLP-1 receptor (hGLP-1R) (Homo sapiens, UniProt P43220); assay: cAMP production (HTRF) in CHO cells expressing human GLP-1 receptor; assay type: cell-based; conditions: Table 8; % GLP-1R activity relative to GLP-1 / % GlucR activity relative to glucagon
T2 construct: expressed in transfected cells; host or cells: CHO

[4] = tested on: Male C57Bl/6 mice; assay: Mouse acute food intake study; assay type: in vivo; conditions: s.c., dose 10 nmol/kg, food intake at 24 h vs vehicle
Procedure: Male C57Bl/6 mice obtained from Jackson Laboratories or Charles River at 8-9 weeks of age and were housed one per cage in BioDaq (Research Diets) cages. Mice were placed on Alpha Dri bedding, standard chow diet (Envigo, 2018) and given water pouches. Mice were allowed to acclimate for 1-2 weeks. Body weight was measured to ensure appropriate acclimation. After acclimation, mice were sham dosed a minimum of 2 times prior to initiation of food intake study. On study day, mice were placed in clean cage bottoms, weighed, and fasted for 6-8 hours. Mice were sorted into groups based on average 24-hour food intake data and body weight. 1-2 hours prior to lights out, mice were dosed subcutaneously with one vehicle or test peptide dissolved in an appropriate vehicle at 5 mL/kg. Mice were left undisturbed and allowed access to food and water for 48 hours. Automated food intake was monitored in the BioDaq system was monitored during this time. Discrete food intake data was exported into MS Excel from which cumulative food intake data was generated and analyzed.

[5] = molecular target: human glucagon receptor (human, UniProt P47871); assay: cell-based or functional assay
[6] = 10 nmol/kg, somatostatin pretreatment 30 min prior to cpd

T2 sequence (P43220 24-463): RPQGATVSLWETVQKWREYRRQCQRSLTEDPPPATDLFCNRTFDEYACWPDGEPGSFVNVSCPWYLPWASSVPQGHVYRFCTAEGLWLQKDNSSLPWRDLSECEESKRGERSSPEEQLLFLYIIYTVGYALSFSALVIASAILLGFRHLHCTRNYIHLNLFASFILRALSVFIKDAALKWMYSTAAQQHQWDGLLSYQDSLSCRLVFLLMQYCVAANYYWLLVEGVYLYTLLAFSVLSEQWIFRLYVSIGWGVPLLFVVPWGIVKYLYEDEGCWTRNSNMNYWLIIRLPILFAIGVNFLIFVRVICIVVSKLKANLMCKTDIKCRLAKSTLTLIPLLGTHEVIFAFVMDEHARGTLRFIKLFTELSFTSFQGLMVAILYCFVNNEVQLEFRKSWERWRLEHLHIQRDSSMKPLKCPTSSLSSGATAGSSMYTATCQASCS
T1 sequence (P08473 whole entry): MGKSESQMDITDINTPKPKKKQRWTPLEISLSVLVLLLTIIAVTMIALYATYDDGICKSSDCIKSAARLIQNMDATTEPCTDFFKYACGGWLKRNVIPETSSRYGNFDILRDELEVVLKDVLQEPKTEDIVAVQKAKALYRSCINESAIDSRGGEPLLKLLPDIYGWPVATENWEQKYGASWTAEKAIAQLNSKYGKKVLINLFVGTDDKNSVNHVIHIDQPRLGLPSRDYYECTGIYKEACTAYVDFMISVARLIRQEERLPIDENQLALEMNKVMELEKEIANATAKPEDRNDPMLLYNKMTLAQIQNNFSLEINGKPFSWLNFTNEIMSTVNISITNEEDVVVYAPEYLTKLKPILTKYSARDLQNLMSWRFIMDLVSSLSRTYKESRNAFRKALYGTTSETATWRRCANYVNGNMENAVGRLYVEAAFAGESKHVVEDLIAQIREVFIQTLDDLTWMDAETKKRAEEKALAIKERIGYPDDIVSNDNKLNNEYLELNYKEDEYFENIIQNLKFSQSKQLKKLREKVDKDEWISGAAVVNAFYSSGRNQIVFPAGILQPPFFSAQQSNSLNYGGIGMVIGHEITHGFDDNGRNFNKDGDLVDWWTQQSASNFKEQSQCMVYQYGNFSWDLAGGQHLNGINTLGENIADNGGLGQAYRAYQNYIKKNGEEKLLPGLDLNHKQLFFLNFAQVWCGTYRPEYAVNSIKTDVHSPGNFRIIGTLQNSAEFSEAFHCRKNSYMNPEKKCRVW

Row | % Relative Potency Ratio [3] | hGluc-R EC50 (pM) [5] [pM] | Molecule | WT % glucose change 120 min [2, 6] [%] | also measured
1 | – | – | CCCCCCCCCCCCCCCCCC(=O)N[C@@H](CCC(=O)N[C@@H](CCC(=O)NCCOCCOCCC(=O)NCCOCCOCCC(=O)NCCCC[C@H](NC(=O)[C@H](CO)NC(=O)[C@H](CC(=O)O)NC(=O)[C@H](CC(C)C)NC(=O)[C@](C)(Cc1ccccc1)NC(=O)[C@H](CCCCN)NC(=O)[C@H](CO)NC(=O)[C@@H](NC(=O)[C@H](CC(=O)O)NC(=O)[C@H](CO)NC(=O)[C@@H](NC(=O)[C@](C)(Cc1ccccc1)NC(=O)[C@H](CO)NC(=O)CNC(=O)[C@H](CCC(N)=O)NC(=O)[C@H](CO)NC(=O)[C@@H](N)Cc1c[nH]cn1)[C@@H](C)O)C(C)C)C(=O)N[C@@H](C)C(=O)N[C@@H](C)C(=O)N[C@@H](CCC(N)=O)C(=O)N[C@@H](CC(=O)O)C(=O)N[C@@](C)(Cc1ccccc1)C(=O)N[C@H](C(=O)N[C@@H](CCC(N)=O)C(=O)NC(C)(C)C(=O)N[C@@H](CC(C)C)C(=O)N[C@@H](CCC(=O)O)C(=O)N[C@@H](C)C(=O)NCC(=O)NCC(N)=O)C(C)C)C(=O)O)C(=O)O [Peptide 78] (H-HSQGS[αMeF]TSDVSK[αMeF]LDSK([PEG2-PEG2-γGlu-γGlu-Stearoyl])AAQD[αMeF]VQ[Aib]LEAGG-NH2; N-terminus assumed) | – | % intact peptide over time, Neprilysin [1]: 100%; WT % glucose change 120 min ([2]; 3 nmol/kg, no somatostatin pretreatment): −42.0%
2 | – | – | CC[C@H](C)[C@H](NC(=O)C(C)(C)NC(=O)[C@H](CCC(N)=O)NC(=O)[C@@H](NC(=O)[C@](C)(Cc1ccccc1)NC(=O)[C@H](CC(=O)O)NC(=O)[C@H](CCCCNC(=O)COCCOCCNC(=O)COCCOCCNC(=O)CC[C@H](NC(=O)CCCCCCCCCCCCCCCCC(=O)O)C(=O)O)NC(=O)[C@H](C)NC(=O)[C@H](C)NC(=O)[C@H](CCCNC(=N)N)NC(=O)[C@H](CO)NC(=O)[C@H](CC(=O)O)NC(=O)[C@H](CC(C)C)NC(=O)[C@](C)(Cc1ccccc1)NC(=O)[C@H](CCCCN)NC(=O)[C@H](CO)NC(=O)[C@@H](NC(=O)[C@H](CC(=O)O)NC(=O)[C@H](CO)NC(=O)[C@@H](NC(=O)[C@](C)(Cc1ccccc1)NC(=O)[C@H](CO)NC(=O)CNC(=O)[C@H](Cc1c[nH]cn1)NC(=O)C(C)(C)NC(=O)[C@@H](N)Cc1c[nH]cn1)[C@@H](C)O)C(C)C)C(C)C)C(=O)N[C@@H](C)C(=O)N[C@@H](CC(N)=O)C(=O)N[C@H](C(N)=O)[C@@H](C)O [Peptide 224, H-Aib-H-G-S-αMePhe-T-S-D-V-S-K-αMePhe-L-D-S-R-A-A-K(ε-(O2Oc)-(O2Oc)-γE-C18diacid)20-D-αMePhe-V-Q-Aib-I-A-N-T-amide] (H-H[Aib]HGS[αMeF]TSDVSK[αMeF]LDSRAAK([AEEA-AEEA-γGlu-C18 diacid])D[αMeF]VQ[Aib]IANT-NH2) | −40.0 | –
3 | 1.3 | – | CC[C@H](C)[C@H](NC(=O)[C@H](Cc1c[nH]c2ccccc12)NC(=O)[C@H](CCCCNC(=O)COCCOCCNC(=O)COCCOCCNC(=O)CC[C@H](NC(=O)CCCCCCCCCCCCCCCCC(=O)O)C(=O)O)NC(=O)[C@@H](NC(=O)[C@H](Cc1ccccc1)NC(=O)[C@H](CC(=O)O)NC(=O)[C@H](CCC(N)=O)NC(=O)[C@H](C)NC(=O)[C@H](C)NC(=O)[C@H](CCCNC(=N)N)NC(=O)[C@H](CO)NC(=O)[C@H](CC(=O)O)NC(=O)[C@H](CC(C)C)NC(=O)[C@](C)(Cc1ccccc1)NC(=O)[C@H](CCCCN)NC(=O)[C@H](CO)NC(=O)[C@@H](NC(=O)[C@H](CC(=O)O)NC(=O)[C@H](CO)NC(=O)[C@@H](NC(=O)[C@](C)(Cc1ccccc1)NC(=O)[C@H](CO)NC(=O)CNC(=O)[C@H](Cc1c[nH]cn1)NC(=O)C(C)(C)NC(=O)[C@@H](N)Cc1c[nH]cn1)[C@@H](C)O)C(C)C)C(C)C)C(=O)N[C@@H](C)C(=O)N[C@@H](CC(N)=O)C(=O)N[C@H](C(N)=O)[C@@H](C)O [Peptide 361] (H-H[Aib]HGS[αMeF]TSDVSK[αMeF]LDSRAAQDFVK([AEEA-AEEA-γGlu-C18 diacid])WIANT-NH2) | −23.0 | –
4 | 1.4 | – | CC[C@H](C)[C@H](NC(=O)C(C)(C)NC(=O)[C@H](CCCCNC(=O)COCCOCCNC(=O)COCCOCCNC(=O)CC[C@H](NC(=O)CC[C@H](NC(=O)CCCCCCCCCCCCCCCCCCC(=O)O)C(=O)O)C(=O)O)NC(=O)[C@@H](NC(=O)[C@](C)(Cc1ccccc1)NC(=O)[C@H](CC(=O)O)NC(=O)[C@H](CCC(N)=O)NC(=O)[C@H](C)NC(=O)[C@H](C)NC(=O)[C@H](CCCNC(=N)N)NC(=O)[C@H](CO)NC(=O)[C@H](CC(=O)O)NC(=O)[C@H](CC(C)C)NC(=O)[C@](C)(Cc1ccccc1)NC(=O)[C@H](CCCCN)NC(=O)[C@H](CO)NC(=O)[C@@H](NC(=O)[C@H](CC(=O)O)NC(=O)[C@H](CO)NC(=O)[C@@H](NC(=O)[C@](C)(Cc1ccccc1)NC(=O)[C@H](CO)NC(=O)CNC(=O)[C@H](Cc1c[nH]cn1)NC(=O)C(C)(C)NC(=O)[C@@H](N)Cc1c[nH]cn1)[C@@H](C)O)C(C)C)C(C)C)C(=O)N[C@@H](C)C(=O)N[C@@H](CC(N)=O)C(=O)N[C@H](C(N)=O)[C@@H](C)O [Peptide 375] (H-H[Aib]HGS[αMeF]TSDVSK[αMeF]LDSRAAQD[αMeF]VK([AEEA-AEEA-γGlu-γGlu-C20 diacid])[Aib]IANT-NH2) | – | 24 hr % Vehicle Food Intake [4]: 66.0%
5 | – | 72.4 | H[Aib]HGS[αMeF]TSDVSK[αMeF]LDSRAAQDFVK([AEEA-AEEA-γGlu-C20 diacid])WIANT-NH2 (not fully specified) [Peptide 367] | – | –
6 | – | 42.8 | H[Aib]HGS[αMeF]TSDVSK[αMeF]LDSRAAQDFVK([AEEA-AEEA-γGlu-γGlu-C18 diacid])WIANT-NH2 (N-terminus assumed; SMILES CC[C@H](C)[C@H](NC(=O)[C@H](Cc1c[nH]c2ccccc12)NC(=O)[C@H](CCCCNC(=O)COCCOCCNC(=O)COCCOCCNC(=O)CC[C@H](NC(=O)CC[C@H](NC(=O)CCCCCCCCCCCCCCCCC(=O)O)C(=O)O)C(=O)O)NC(=O)[C@@H](NC(=O)[C@H](Cc1ccccc1)NC(=O)[C@H](CC(=O)O)NC(=O)[C@H](CCC(N)=O)NC(=O)[C@H](C)NC(=O)[C@H](C)NC(=O)[C@H](CCCNC(=N)N)NC(=O)[C@H](CO)NC(=O)[C@H](CC(=O)O)NC(=O)[C@H](CC(C)C)NC(=O)[C@](C)(Cc1ccccc1)NC(=O)[C@H](CCCCN)NC(=O)[C@H](CO)NC(=O)[C@@H](NC(=O)[C@H](CC(=O)O)NC(=O)[C@H](CO)NC(=O)[C@@H](NC(=O)[C@](C)(Cc1ccccc1)NC(=O)[C@H](CO)NC(=O)CNC(=O)[C@H](Cc1c[nH]cn1)NC(=O)C(C)(C)NC(=O)[C@@H](N)Cc1c[nH]cn1)[C@@H](C)O)C(C)C)C(C)C)C(=O)N[C@@H](C)C(=O)N[C@@H](CC(N)=O)C(=O)N[C@H](C(N)=O)[C@@H](C)O) [Peptide 362] | – | –

— patent US12630600B2 (MEDIMMUNE LIMITED, priority 2022, dated 2026)
